# Data published in patent US8481028B2, “Compositions for preparing a coffee beverage comprising hydrolysed chlorogenic acid” (Nestec S.A., priority 2008, dated 2013).
# Experiments:
# [1] = test system: concentrated preparation of Lactobacillus johnsonii (CNCM I-1225); test: Treatment of NESCAFE with concentrated preparation of L. johnsonii, HPLC
# Experimental: 400 mg of NESCAFE SPECIAL FILTRE® (a dried extract of roasted coffee beans) were dissolved in 1 ml of boiling water and the solution was cooled to 37° C. at room temperature. To 250 μl of this coffee solution, different amounts of concentrated preparation of Lactobacillus johnsonii (50 μl, 100 μl, 350 μl, 750 μl) were added and the volume was adjusted to 1 ml with water. The mixtures were than incubated at 37° C. for 2 h and 4 h. After centrifugation (3000 g, 5 min) and filtration the samples were analysed by HPLC.
# (§1) Coffee samples were diluted to 1% w/w and analyzed by RP-HPLC on a CC 250/4 Nucleosil 100-5-C18 column (Macherey-Nagel). The eluent system was Millipore water, 0.1% TFA and CH3CN at a flow rate of 1 mL/min. The method allowed the simultaneous determination of caffeoyl quinic acids (CQA), feruloyl quinic acids (FQA), di-caffeoyl quinic acids (diCQA), feruloyl quinic acid-lactones, caffeic acid (CA) and ferulic acid (FA) (absorbance at 325 nm) using external standard calibration curves. Results were expressed relative to the reference at time 0 (t0) or to the reference at the same time without bacteria.
# [2] = test system: Lactobacillus johnsonii (CNCM I-1225) fresh cells; test: Treatment of NESCAFE PROTECT with L. johnsonii fresh cells, HPLC of chlorogenic and phenolic acids
# Experimental: (§2) Cells of L. johnsonii (CNCM I-1225) were grown (7.0 E08 cfu/ml) and centrifuged (5000 g, 10 min), the pellets were resuspended in phosphate buffer (50 mM, pH 7.0) at a concentration of 0.61 g/ml. […] Samples were withdrawn at different reaction times, centrifuged (3000 g, 5 min) and filtered through 0.45 μm pore size syringe filters (Millipore SLHA 025 BS) and analysed by HPLC.
# A reaction control was run in parallel under the same reaction conditions but without bacteria.
# as §1
# [3] = test system: spray-dried preparation of Lactobacillus johnsonii (CNCM I-1225); test: Treatment of NESCAFE PROTECT with spray-dried preparation of L. johnsonii, HPLC
# Experimental: (§3) To this solution, 10 mg of a spray-dried preparation of Lactobacillus johnsonii (CNCM I-1225) (3.3 E9 cfu/g) were added. The mixture was then incubated at 37° C. and samples were withdrawn at different reaction times. After centrifugation (3000 g, 5 min) and filtration (0.45 μm pore size syringe filters, Millipore SLHA 025 BS) the samples were analysed by HPLC.
# as §1
# [4] = test system: spray-dried preparation of Lactobacillus johnsonii (CNCM I-1225); test: Treatment of green coffee extract with spray-dried preparation of L. johnsonii, HPLC
# Experimental: as §3, with “30 mg of a dried green coffee extract was dissolved in 1 ml phosphate buffer (50 mM, pH 7.0) or in 1 ml water. To” for “To”, “johnsonii” for “johnsonii (CNCM I-1225)”, “cfu/g) was” for “cfu/g) were”
# as §1
# [5] = test system: Lactobacillus johnsonii (CNCM I-1225) extract (lysed cells); test: Treatment of NESCAFE PROTECT with L. johnsonii extract (lysed cells), HPLC; type: biochemical
# Experimental: as §2, with “g/ml. The cells were then lysed using the glass-beads method. 600 μl of cells preparation were put in screw-cap tubes and 600 μl of glass-beads were added at 0° C. The tubes were then put into a Mini-Beadbeater for 1 min of intense shaking, cooled in ice, and put another 1 min in the Mini-Beadbeater.” for “g/ml.”, “min),” for “min) and”
# as §1
# Chlorogenate esterase = test: Incubation of coffee extracts with chlorogenate esterase, HPLC; type: biochemical, Aspergillus japonicus
# Experimental: as §1
# Chlorogenate esterase (24 U/g), derived from Aspergillus japonicus (Kikkoman, Japan). Tannase from Aspergillus oryzae (Kikkoman, Japan) Preparation of Bacteria Cells
# A solution of chlorogenate esterase (25 mg) in 200 μl phosphate buffer (pH 7.0) was added to 800 μl of a coffee solution (3%). The mixture was then incubated at 37° C. for 4 h, 16 h and 24 h. After reaction time, the enzymatic activity was stopped by heat treatment (3 min, 90° C.) and the mixture was filtered before analysis.
# [6] = test system: Lactobacillus johnsonii (CNCM I-1225); test: Treatment of coffee extracts with bacteria cells (L. johnsonii), HPLC
# Experimental: as §1
# (§4) Tested strains were harvested (centrifugation at 5000 g for 10 min) after having well reached stationary phase, corresponding to 16 hours of incubation in culture medium at 37° C. in anaerobic atmosphere without agitation. For a first activation of the strains, frozen stock cultures were inoculated in fresh media and grown overnight. This pre-culture was used to inoculate the culture.
# (§5) After culture of bacteria and centrifugation, the pellets were resuspended in phosphate buffer (pH 7.0) at a concentration of 0.61 g/ml. To 200 μl of this cells preparation, 800 μl of a coffee solution (3%) was added and the mixture was incubated at 37° C. for 4 h, 16 h and 24 h.
# [7] = test system: Bifidobacterium lactis BB12 (CNCM I-3446); test: Treatment of coffee extracts with bacteria cells (B. lactis), HPLC
# Experimental: as §1, §4, §5
# [8] = NESCAFE PROTECT + Chlorogenate esterase, 4 h
# [9] = NESCAFE PROTECT + Chlorogenate esterase, 16 h
# [10] = NESCAFE PROTECT + Chlorogenate esterase, 24 h
# [11] = green coffee extract + Chlorogenate esterase, 4 h
# [12] = green coffee extract + Chlorogenate esterase, 16 h
# [13] = green coffee extract + Chlorogenate esterase, 24 h
# [14] = NESCAFE PROTECT + Lactobacillus johnsonii, 4 h
# [15] = NESCAFE PROTECT + Lactobacillus johnsonii, 16 h
# [16] = NESCAFE PROTECT + Lactobacillus johnsonii, 24 h
# [17] = green coffee extract + Lactobacillus johnsonii, 4 h
# [18] = green coffee extract + Lactobacillus johnsonii, 16 h
# [19] = green coffee extract + Lactobacillus johnsonii, 24 h
# [20] = NESCAFE PROTECT + Bifidobacterium lactis, 4 h
# [21] = NESCAFE PROTECT + Bifidobacterium lactis, 16 h
# [22] = NESCAFE PROTECT + Bifidobacterium lactis, 24 h
# [23] = green coffee extract + Bifidobacterium lactis, 4 h
# [24] = green coffee extract + Bifidobacterium lactis, 16 h
# [25] = green coffee extract + Bifidobacterium lactis, 24 h
compound,measurement,setting,value
"COc1cc(/C=C/C(=O)O)ccc1O [FA, ferulic acid]",% relative to untreated control at t = 0,"[1]; cell amount 50 μL/1 mL, 2 h",1509%
same,% relative to untreated control at t = 0,"[1]; cell amount 50 μL/1 mL, 4 h",786%
same,% relative to untreated control at t = 0,"[1]; cell amount 100 μL/1 mL, 2 h",2468%
same,% relative to untreated control at t = 0,"[1]; cell amount 100 μL/1 mL, 4 h",1266%
same,% relative to untreated control at t = 0,"[1]; cell amount 350 μL/1 mL, 2 h",5327%
same,% relative to untreated control at t = 0,"[1]; cell amount 350 μL/1 mL, 4 h",2408%
same,% relative to untreated control at t = 0,"[1]; cell amount 750 μL/1 mL, 2 h",7586%
same,% relative to untreated control at t = 0,"[1]; cell amount 750 μL/1 mL, 4 h",3281%
same,Concentration in % relative to untreated reference at t = 0,"[2]; 6 h, cell preparation 100 uL",4594%
same,Concentration in % relative to untreated reference at t = 0,"[2]; 6 h, cell preparation 350 uL",7234%
same,Concentration in % relative to untreated reference at t = 0,"[2]; 6 h, cell preparation 750 uL",7776%
same,Concentration in % relative to untreated reference at t = 0,"[2]; 24 h, cell preparation 100 uL",6691%
same,Concentration in % relative to untreated reference at t = 0,"[2]; 24 h, cell preparation 350 uL",8861%
same,Concentration in % relative to untreated reference at t = 0,"[2]; 24 h, cell preparation 750 uL",8845%
same,% relative to untreated control at t = 0,[3]; 2 h,1109%
same,% relative to untreated control at t = 0,[3]; 6 h,2183%
same,% relative to untreated control at t = 0,[3]; 24 h,3686%
same,% relative to untreated control at t = 0,[4]; 4 h,961%
same,% relative to untreated control at t = 0,[4]; 6 h,1429%
same,% relative to untreated control at t = 0,[4]; 16 h,1963%
same,% relative to untreated control at t = 0,[4]; 24 h,2432%
same,Concentration in % relative to untreated reference at t = 0,"[5]; 2 h, cell preparation 100.0 uL",5581%
same,Concentration in % relative to untreated reference at t = 0,"[5]; 2 h, cell preparation 350.0 uL",7771%
same,Concentration in % relative to untreated reference at t = 0,"[5]; 6 h, cell preparation 100.0 uL",6960%
same,Concentration in % relative to untreated reference at t = 0,"[5]; 6 h, cell preparation 350.0 uL",9720%
same,% relative to untreated control at t = 0,Chlorogenate esterase; [8],2794%
same,% relative to untreated control at t = 0,Chlorogenate esterase; [9],5140%
same,% relative to untreated control at t = 0,Chlorogenate esterase; [10],5518%
same,% relative to untreated control at t = 0,Chlorogenate esterase; [11],2620%
same,% relative to untreated control at t = 0,Chlorogenate esterase; [12],5685%
same,% relative to untreated control at t = 0,Chlorogenate esterase; [13],6293%
same,% relative to untreated control at t = 0,[6]; [14],4051%
same,% relative to untreated control at t = 0,[6]; [15],5226%
same,% relative to untreated control at t = 0,[6]; [16],5504%
same,% relative to untreated control at t = 0,[6]; [17],4607%
same,% relative to untreated control at t = 0,[6]; [18],7192%
same,% relative to untreated control at t = 0,[6]; [19],7597%
same,% relative to untreated control at t = 0,[7]; [20],3065%
same,% relative to untreated control at t = 0,[7]; [21],4518%
same,% relative to untreated control at t = 0,[7]; [22],5144%
same,% relative to untreated control at t = 0,[7]; [23],5020%
same,% relative to untreated control at t = 0,[7]; [24],6970%
same,% relative to untreated control at t = 0,[7]; [25],7105%
caffeoyl quinic acids [CQA],% relative to untreated control at t = 0,"[1]; cell amount 50 μL/1 mL, 2 h",92%
same,% relative to untreated control at t = 0,"[1]; cell amount 50 μL/1 mL, 4 h",76%
same,% relative to untreated control at t = 0,"[1]; cell amount 100 μL/1 mL, 2 h",80%
same,% relative to untreated control at t = 0,"[1]; cell amount 100 μL/1 mL, 4 h",60%
same,% relative to untreated control at t = 0,"[1]; cell amount 350 μL/1 mL, 2 h",46%
same,% relative to untreated control at t = 0,"[1]; cell amount 350 μL/1 mL, 4 h",33%
same,% relative to untreated control at t = 0,"[1]; cell amount 750 μL/1 mL, 2 h",25%
same,% relative to untreated control at t = 0,"[1]; cell amount 750 μL/1 mL, 4 h",17%
same,Concentration in % relative to untreated reference at t = 0,"[2]; 6 h, cell preparation 100 uL",39%
same,Concentration in % relative to untreated reference at t = 0,"[2]; 6 h, cell preparation 350 uL",14%
same,Concentration in % relative to untreated reference at t = 0,"[2]; 6 h, cell preparation 750 uL",3%
same,Concentration in % relative to untreated reference at t = 0,"[2]; 24 h, cell preparation 100 uL",15%
same,Concentration in % relative to untreated reference at t = 0,"[2]; 24 h, cell preparation 350 uL",3%
same,Concentration in % relative to untreated reference at t = 0,"[2]; 24 h, cell preparation 750 uL",0%
same,% relative to untreated control at t = 0,[3]; 2 h,73%
same,% relative to untreated control at t = 0,[3]; 6 h,67%
same,% relative to untreated control at t = 0,[3]; 24 h,32%
same,% relative to untreated control at t = 0,[4]; 4 h,77%
same,% relative to untreated control at t = 0,[4]; 6 h,69%
same,% relative to untreated control at t = 0,[4]; 16 h,58%
same,% relative to untreated control at t = 0,[4]; 24 h,50%
same,Concentration in % relative to untreated reference at t = 0,"[5]; 2 h, cell preparation 100.0 uL",32%
same,Concentration in % relative to untreated reference at t = 0,"[5]; 2 h, cell preparation 350.0 uL",10%
same,Concentration in % relative to untreated reference at t = 0,"[5]; 6 h, cell preparation 100.0 uL",14%
same,Concentration in % relative to untreated reference at t = 0,"[5]; 6 h, cell preparation 350.0 uL",6%
same,% relative to untreated control at t = 0,Chlorogenate esterase; [8],5%
same,% relative to untreated control at t = 0,Chlorogenate esterase; [9],3%
same,% relative to untreated control at t = 0,Chlorogenate esterase; [10],3%
same,% relative to untreated control at t = 0,Chlorogenate esterase; [11],3%
same,% relative to untreated control at t = 0,Chlorogenate esterase; [12],2%
same,% relative to untreated control at t = 0,Chlorogenate esterase; [13],2%
same,% relative to untreated control at t = 0,[6]; [14],33%
same,% relative to untreated control at t = 0,[6]; [15],13%
same,% relative to untreated control at t = 0,[6]; [16],13%
same,% relative to untreated control at t = 0,[6]; [17],42%
same,% relative to untreated control at t = 0,[6]; [18],15%
same,% relative to untreated control at t = 0,[6]; [19],12%
same,% relative to untreated control at t = 0,[7]; [20],97%
same,% relative to untreated control at t = 0,[7]; [21],81%
same,% relative to untreated control at t = 0,[7]; [22],80%
same,% relative to untreated control at t = 0,[7]; [23],96%
same,% relative to untreated control at t = 0,[7]; [24],79%
same,% relative to untreated control at t = 0,[7]; [25],74%
